Laboratory results from article PMC9867436, “Drug Repurposing to Inhibit Histamine N-Methyl Transferase” (Molecules, 2023).
Where two headings read alike, the source gives them in different places.

Biological target: T1, Histamine N-Methyltransferase (HNMT) (Homo sapiens, UniProt P50135)
T1 construct: Recombinant Human Histamine N-Methyltransferase (rhHNMT, R&D Systems 7637-MT)
Assay: fluorescence assay of histamine methylation by recombinant HNMT (ex […]/em […] nm)
Assay type: biochemical

T1 sequence (P50135 whole entry): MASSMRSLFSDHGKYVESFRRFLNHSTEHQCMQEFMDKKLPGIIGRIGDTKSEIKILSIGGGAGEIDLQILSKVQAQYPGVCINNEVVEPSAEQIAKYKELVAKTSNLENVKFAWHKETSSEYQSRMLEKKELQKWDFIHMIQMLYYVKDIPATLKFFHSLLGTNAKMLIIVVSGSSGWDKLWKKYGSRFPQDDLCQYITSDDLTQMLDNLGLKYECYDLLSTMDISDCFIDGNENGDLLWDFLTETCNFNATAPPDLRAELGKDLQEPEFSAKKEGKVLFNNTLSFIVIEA

Row | IC50 (read-out: IC50) [µM] | SMILES | IC50 [µM]
1 | – | CN1C[C@H](C(=O)N[C@]2(C)O[C@@]3(O)[C@@H]4CCCN4C(=O)[C@H](Cc4ccccc4)N3C2=O)C[C@@H]2c3cccc4[nH]cc(c34)C[C@H]21 [dihydroergotamine] | 72.9
2 | 0.0667 | Cc1nc(N)nc(N)c1-c1ccc(Cl)c(Cl)c1 [metoprine, reference compound] | –
3 | 45 | N#Cc1ccc2[nH]cc(CCCCN3CCN(c4ccc5oc(C(N)=O)cc5c4)CC3)c2c1 [vilazodone] | –
